Values after ≈ are worked out from the molar mass of the structure shown. Active and inactive are the calls of the source. The calls are words filed in the database; no cut-off is given here.
Tests used:
[1] = system: Candida; test: Downregulation of RIO2 gene expression in Candida cells; assay type: functional, cell-based
[2] = system: Candida; test: Downregulation of CDC42 gene expression in Candida cells; assay type: functional, cell-based
[3] = system: Candida; test: Downregulation of PRS5 gene expression in Candida cells; assay type: functional, cell-based
[4] = system: Candida; test: Downregulation of CMP1 gene expression in Candida cells; assay type: functional, cell-based
[5] = system: Candida; test: Downregulation of CAS5 gene expression in Candida cells; assay type: functional, cell-based
[6] = system: Nakaseomyces glabratus; test: Antifungal activity against Candida glabrata ATCC 2001 assessed as inhibition of fungal growth by broth microdilution method; assay type: functional
[7] = system: [Candida] auris; test: Antifungal activity against Candida auris 105 assessed as inhibition of fungal growth by broth microdilution method; assay type: functional; conditions: Candidozyma auris
[8] = system: Candida albicans; test: Synergistic antifungal activity against Candida albicans ATCC 24433 assessed as fractional inhibitory concentration index incubated for 48 hrs in presence of caspofungin by checker board assay; assay type: functional
[9] = system: Cell membrane; test: Disruption of membrane integrity in Candida albicans ATCC 24433 assessed as cell shrinkage and lysis by measuring leakage of intracellular material measured after 6 hrs by SEM analysis; assay type: subcellular
[10] = system: Candida albicans; test: Upregulation of CaPHO15 gene expression in Candida albicans ATCC 24433 assessed as increase in glycerol content at sub-inhibitory concentration incubated for 2 hrs; assay type: functional
[11] = system: Candida albicans; test: Induction of ROS generation in Candida albicans ATCC 24433 assessed as increase in relative fluorescence unit at sub-inhibitory concentration incubated for 1 hr by DCFDA staining-based flow cytometric analysis; assay type: functional, organism-based
[12] = system: [Candida] auris; test: Induction of ROS generation in Candida auris CBS10913 assessed as increase in relative fluorescence unit at sub-inhibitory concentration incubated for 1 hr by DCFDA staining-based flow cytometric analysis; assay type: functional, organism-based; conditions: Candidozyma auris
[13] = system: Candida albicans; test: Antifungal activity against wild type Candida albicans SN152 assessed as inhibition of fungal growth by broth microdilution method; assay type: functional
[14] = system: Candida albicans; test: Antifungal activity against Candida albicans SN152 harboring CAS5 mutant assessed as inhibition of fungal growth by broth microdilution method; assay type: functional
[15] = system: Candida albicans; test: Synergistic antifungal activity against wild type Candida albicans SN152 assessed as fractional inhibitory concentration index incubated for 48 hrs in presence of fluconazole by checker board assay; assay type: functional
[16] = system: Candida albicans; test: Synergistic antifungal activity against Candida albicans SN152 harboring CAS5 mutant assessed as fluconazole MIC incubated for 48 hrs by checker board assay; assay type: functional
[17] = system: Candida albicans; test: Synergistic antifungal activity against Candida albicans SN152 harboring CAS5 mutant assessed as fractional inhibitory concentration index incubated for 48 hrs in presence of fluconazole by checker board assay; assay type: functional
[18] = system: Candida albicans; test: Synergistic antifungal activity against wild type Candida albicans SN152 assessed as inhibition of fungal growth incubated for 48 hrs in presence of Amphotericin B by checker board assay; assay type: functional
[19] = system: Candida albicans; test: Synergistic antifungal activity against Candida albicans SN152 harboring CAS5 mutant assessed as Amphotericin B MIC incubated for 48 hrs by checker board assay; assay type: functional
[20] = system: Candida albicans; test: Synergistic antifungal activity against wild type Candida albicans SN152 assessed as inhibition of fungal growth incubated for 48 hrs in presence of Caspofungin by checker board assay; assay type: functional
[21] = system: Candida albicans; test: Synergistic antifungal activity against Candida albicans SN152 harboring CAS5 mutant assessed as fractional inhibitory concentration index incubated for 48 hrs in presence of Caspofungin by checker board assay; assay type: functional
[22] = system: Candida albicans; test: Synergistic antifungal activity against Candida albicans ATCC 24433 assessed as Congo red MIC incubated for 48 hrs by checker board assay; assay type: functional
[23] = system: Candida albicans; test: Synergistic antifungal activity against Candida albicans ATCC 24433 assessed as inhibition of fungal growth incubated for 48 hrs in presence of Congo red by checker board assay; assay type: functional
[24] = system: Candida parapsilosis; test: Synergistic antifungal activity against Candida parapsilosis ATCC 90018 assessed as fractional inhibitory concentration index incubated for 48 hrs in presence of Congo red by checker board assay; assay type: functional
[25] = system: [Candida] auris; test: Synergistic antifungal activity against Candida auris CBS10913 assessed as Congo red MIC incubated for 48 hrs by checker board assay; assay type: functional; conditions: Candidozyma auris
[26] = system: [Candida] auris; test: Synergistic antifungal activity against Candida auris CBS10913 assessed as fractional inhibitory concentration index incubated for 48 hrs in presence of Congo red by checker board assay; assay type: functional, Candidozyma auris
[27] = system: Candida albicans; test: Synergistic antifungal activity against Candida albicans ATCC 24433 assessed as inhibition of fungal growth incubated for 48 hrs in presence of Calcoflour White by checker board assay; assay type: functional
[28] = system: Candida albicans; test: Synergistic antifungal activity against Candida albicans ATCC 24433 assessed as Calcoflour White MIC incubated for 48 hrs by checker board assay; assay type: functional
[29] = system: Candida parapsilosis; test: Synergistic antifungal activity against Candida parapsilosis ATCC 90018 assessed as Calcoflour White MIC incubated for 48 hrs by checker board assay; assay type: functional; conditions: Lodderomyces parapsilosis
[30] = system: Candida parapsilosis; test: Synergistic antifungal activity against Candida parapsilosis ATCC 90018 assessed as inhibition of fungal growth incubated for 48 hrs in presence of Calcoflour White by checker board assay; assay type: functional; conditions: Lodderomyces parapsilosis
[31] = system: Candida albicans; test: Synergistic antifungal activity against Candida albicans ATCC 24433 assessed as fractional inhibitory concentration index incubated for 48 hrs in presence of SDS by checker board assay; assay type: functional
[32] = system: Candida albicans; test: Antifungal activity against Candida albicans ATCC 24433 overexpressing transporter protein GU4 assessed as inhibition of fungal growth by broth microdilution method; assay type: functional
[33] = system: Candida albicans; test: Antifungal activity against Candida albicans ATCC 24433 overexpressing transporter protein F2 assessed as inhibition of fungal growth by broth microdilution method; assay type: functional
[34] = system: Candida albicans; test: Antifungal activity against Candida albicans ATCC 24433 overexpressing ADCaMDR1-GFP assessed as inhibition of fungal growth by broth microdilution method; assay type: functional
[35] = system: Candida albicans; test: Antifungal activity against Candida albicans ATCC 24433 overexpressing ADPDR5-GFP assessed as inhibition of fungal growth by broth microdilution method; assay type: functional
[36] = system: Candida albicans; test: Antifungal activity against Candida albicans ATCC 24433 overexpressing AD(1-8)u-assessed as inhibition of fungal growth by broth microdilution method; assay type: functional
[37] = system: Candida albicans; test: Synergistic antifungal activity against Candida albicans ATCC 24433 overexpressing ADCaMDR1-GFP assessed as fractional inhibitory concentration index incubated for 48 hrs in presence of caspofungin by checker board assay; assay type: functional
[38] = system: Candida; test: Downregulation of SSZ1 gene expression in Candida cells; assay type: functional, cell-based
[39] = system: Candida; test: Downregulation of PGA10 gene expression in Candida cells; assay type: functional, cell-based
[40] = system: Candida; test: Downregulation of BMT4 gene expression in Candida cells; assay type: functional, cell-based
[41] = system: Candida; test: Downregulation of CCT2 gene expression in Candida cells; assay type: functional, cell-based
[42] = system: Candida; test: Downregulation of CCT3 gene expression in Candida cells; assay type: functional, cell-based
[43] = system: Candida; test: Upregulation of ARG1 gene expression in Candida cells; assay type: functional, cell-based
[44] = system: Candida; test: Upregulation of ARG2 gene expression in Candida cells; assay type: functional, cell-based
[45] = system: Candida; test: Upregulation of ARG4 gene expression in Candida cells; assay type: functional, cell-based
[46] = system: Candida; test: Upregulation of CPA1 gene expression in Candida cells; assay type: functional, cell-based
[47] = system: Candida; test: Upregulation of LSC1 gene expression in Candida cells; assay type: functional, cell-based
[48] = system: Candida; test: Upregulation of LSC2 gene expression in Candida cells; assay type: functional, cell-based
[49] = system: Candida; test: Upregulation of GAL4 gene expression in Candida cells; assay type: functional, cell-based

O=[N+]([O-])/C=C/c1ccc(O)cc1
Activity [1]: Active
Activity [2]: Active
Activity [3]: Active
Activity [4]: Active
Activity [5]: Active
MIC80 [6]: 8 µg/mL (≈ 48.4 µM)
MIC80 [7]: 2 µg/mL (≈ 12.1 µM)
fractional inhibitory concentration index (FICI) [8]: <3.5
Activity [9]: Active
Activity [10]: Active
Activity [11]: Active
Activity [12]: Active
MIC80 [13]: 8 µg/mL (≈ 48.4 µM)
MIC80 [14]: 2 µg/mL (≈ 12.1 µM)
fractional inhibitory concentration index (FICI) [15]: 0.25
MIC [16]: 0.125 µg/mL
fractional inhibitory concentration index (FICI) [17]: 0.126
MIC [18]: 0.0625 µg/mL
MIC [19]: 0.25 µg/mL
MIC [20]: 0.0625 µg/mL
fractional inhibitory concentration index (FICI) [21]: 0.5
MIC [22]: 3.12 µg/mL
MIC [23]: 0.5 µg/mL
fractional inhibitory concentration index (FICI) [24]: 0.25
MIC [25]: 100 µg/mL
fractional inhibitory concentration index (FICI) [26]: 0.3125
MIC [27]: 0.0078 µg/mL
MIC [28]: 12.5 µg/mL
MIC [29]: 25 µg/mL
MIC [30]: 0.0078 µg/mL
fractional inhibitory concentration index (FICI) [31]: 0.5
MIC80 [32]: 4 µg/mL (≈ 24.2 µM)
MIC80 [33]: 2 µg/mL (≈ 12.1 µM)
MIC80 [34]: 4 µg/mL (≈ 24.2 µM)
MIC80 [35]: 4 µg/mL (≈ 24.2 µM)
MIC80 [36]: 4 µg/mL (≈ 24.2 µM)
fractional inhibitory concentration index (FICI) [37]: <0.5
Activity [38]: Active
Activity [39]: Active
Activity [40]: Active
Activity [41]: Active
Activity [42]: Active
Activity [43]: Active
Activity [44]: Active
Activity [45]: Active
Activity [46]: Active
Activity [47]: Active
Activity [48]: Active
Activity [49]: Active

— ChEMBL document CHEMBL5113512, “β-Nitrostyrene derivatives as broad range potential antifungal agents targeting fungal cell wall” (2022)
